# Where two headings read alike, the source gives them in different places.
# What was measured:
# [1] = system: gastric mucosa lesions induced by absolute ethanol; assay: Gastroprotective activity, test with absolute ethanol (gastric mucosa erosions); assay type: in vivo, rat; conditions: for gastroprotective activity (in words): test with absolute ethanol; for Relative activity related to the inhibition of the free acid: ED50 of gastric acid inhibition (Shay) related to ED50 of inhibition of gastric erosion; for ED50: po
# Description: (§1) Rats of both sexes weighing 200 to 250 g, each previously starved for 24 hours, were used in this experiment. The lesions of gastric mucosa were induced by the oral administration of absolute ethanol in a dose of 1 ml/animal. After one hour following the administration, the animals were killed by an overdose of ether, the stomach was excised and the alterations of gastric mucosa were examined. The lengths of the erosions were measured and summarized (expressed in mm) for each stomach to obtain the erosion index by calculating the average value of the group. The inhibition was calculated in percentage by comparing the value of the group treated with ethanol to that of the control group treated only with the vehicle. Various doses of the compounds to be tested were administered, perorally, in a volume of 5 ml/kg using a pretreatment time of 60 minutes. Eight rats were used for each dose. /A. Robert, Gastroenterology 77, 761-767 (1979)/.
# ^x Relative activity = ED50 value of the gastric acid inhibition
# related to the ED50 value of the inhibition of the gastric erosion.
# [2] = in vivo; conditions: mouse, po, NMRI mice, 7 days, "higher than" = highest dose administered without any death
# Description: The acute toxicity was determined on NMRI strain mice of both sexes weighing 20 to 25 g each by using 6 animals for each dose. The compounds to be tested were administered perorally in a volume of 20 ml/kg, the highest dose applied was 1000 mg/kg. After the administration the animals were kept under usual laboratory conditions for 7 days.
# The data given as "higher than" a certain value mean the highest dose administered without noting any death of animals.
# [3] = system: gastric erosions induced by ethanol containing hydrochloric acid; assay: Test with ethanol containing hydrochloric acid (gastric erosions); assay type: in vivo, rat; conditions: for ED50: po, rat, p.o., HCl/absolute ethanol 1 to 50; for Inhibition of the erosion index, relative activity: ED50 of cetraxate divided by ED50 of compound tested; for Inhibition of the erosion frequency, relative activity: related to cetraxate
# Description: as §1
# The principle of the method consists in that, simultaneously with the administration of absolute ethanol, hydrochloric acid is introduced to the stomach. Thus, the influence on systemic gastric acid inhibition action can be eliminated by the presence of the exogenous acid.
# The reagent used in this test was a mixture of concentrated aqueous hydrochloric acid and absolute ethanol in a mass ratio of 1 to 50 in accordance with the dilution ratio used by Yamazaki et al., see Japan J. Pharmacol., 55, 415-424 (1991). Otherwise, the experiment was performed as described under test 2.1., however, in addition to the erosion index calculated from the lengths of the erosions in mm, the ratio of occurence of animals showing at least one gastric erosion within a test group, i.e. the erosion frequency, was also evaluated.
# [4] = system: Helicobacter pylori; assay: Antibacterial effect on Helicobacter pylori (MIC, blood agar); assay type: cell-based; conditions: Helicobacter pylori, 72 h
# Description: Helicobacter pylori strains used in these experiments were obtained from the biopsial samples of the stomachs of patients suffering from ulcerative diseases of the gastrointestinal system. From the pure culture of isolates a thick suspension was prepared with cysteine-inositol solution suitable for lyophilisation, and the suspension obtained was maintained in cold-resistant plastic ampoules in a deep-freezing chamber at a temperature of about -196 ° C. For the determination of the inhibitory effect of the compounds tested on Helicobacter pylori, blood agar containing 10 mg/liter of vancomycin and 25 mg/liter of amphotericin B was used /C. A. M. McNulty and I. C. Dent: Susceptibility of clinical isolates of Campylobacter pylori to twenty one antimicrobial agents. Book of Abstracts, 4th European Congress of Clinical Microbiology, Nice (1989)/.
# The plates containing the strains were cultivated at 37° C. for 72 hours under a gaseous atmosphere containing 10 per cent of carbon dioxide and 5 per cent of oxygen /D. M. Jones et al., J. Clin. Pathol., 37, 1002 (1984)/.
# The culture media were inoculated by diluting the broth culture of the strains grown overnight or with a suspension prepared from a culture obtained on a solid medium. About 10^5 of germs were applied to the surface of each plate.
# A series of dilution were prepared from the compound to be-tested. The MIC (minimal inhibiting concentration) value of the compounds tested was considered to be the lowest concentration inhibiting the growth of the test organism completely.
# [5] = erosion index, read-out: Inhibition of the erosion index, ED50 p.o.
# [6] = rat, 60 min pretreatment, absolute ethanol 1 ml/animal, erosion index
# [7] = erosion frequency, read-out: Inhibition of the erosion frequency, ED50 p.o.
compound,measurement,setting,value
"CN1CCN(CC(=O)N2c3ccccc3C(=O)Nc3cccnc32)CC1 [pirenzepine, reference compound]",gastroprotective activity (in words),[1],low gastroprotective action in a rather high dose
"COc1ccc2nc([S+]([O-])Cc3ncc(C)c(OC)c3C)[nH]c2c1 (centres unmarked) [omeprazole, 5-methoxy-2-[[(4-methoxy-3,5-dimethyl-2-pyridyl)methyl]sulfinyl]benzimidazole, reference compound]",LD50 at 168 h,[2],> 4000 mg/kg
same,gastroprotective activity (in words),[1],low gastroprotective action in a rather high dose
"CCCCCCNCC(O)CO/N=C1\CCCC\C1=C/c1ccccc1 (racemic) [Compound C, (R,S)-2-(E)-(phenylmethylene)-1-(E)-[(3-hexylamino-2-hydroxypropoxy)imino]cyclohexane]",LD50 at 168 h,[2],> 1000 mg/kg
same,ED50,[3]; [5],11.5 mg/kg
same,MIC,[4]; strain 867/90,3.9 µg/mL
same,MIC,[4]; strain 1596,7.8 µg/mL
same,MIC,[4]; strain 3842,3.9 µg/mL
same,MIC,[4]; strain 6656,3.9 µg/mL
same,MIC,[4]; strain 6709,3.9 µg/mL
CC(C)NCC(O)CO/N=C1\CCCC\C1=C/c1ccc(Br)cc1 (racemic) [Compound K],Relative activity related to the inhibition of the free acid,[1],about 17.9
same,ED50,[1]; [6],6.7 mg/kg
same,"Inhibition of the erosion index, relative activity",[3]; erosion index,1.9
same,ED50,[3]; [7],15 to 30 mg/kg
same,ED50,[3]; [5],11.4 mg/kg
same,"Inhibition of the erosion frequency, relative activity",[3]; erosion frequency,6-12
"OC(CNC1CCCCC1)CO/N=C1\CCCC\C1=C/c1ccc(Cl)cc1 (racemic) [Compound E, (R,S)-2-(E)-(4-chlorophenylmethylene)-1-(E)-[(3-cyclohexylamino-2-hydroxypropoxy)imino]cyclohexane]",LD50 at 168 h,[2],> 1000 mg/kg
same,ED50,[3]; [5],10.3 mg/kg
same,"Inhibition of the erosion frequency, relative activity",[3]; erosion frequency,3-6
"CC(C)N(CC(O)CO/N=C1\CCCC\C1=C/c1ccc(Cl)cc1)C(C)C (racemic) [Compound J, (R,S)-2-(E)-(4-chlorophenylmethylene)-1-(E)-[(3-diisopropylamino-2-hydroxypropoxy)imino]cyclohexane]",Relative activity related to the inhibition of the free acid,[1],about 25.0
same,ED50,[1]; [6],7 mg/kg
same,"Inhibition of the erosion index, relative activity",[3]; erosion index,3.7
same,ED50,[3]; [7],19.1 mg/kg
same,ED50,[3]; [5],5.9 mg/kg
same,"Inhibition of the erosion frequency, relative activity",[3]; erosion frequency,9.9
"CCCCNCC(O)CO/N=C1\CCCC\C1=C/c1ccc(Cl)c(Cl)c1 (racemic) [Compound A, (R,S)-2-(E)-(3,4-dichlorophenylmethylene)-1-(E)-[(3-butylamino-2-hydroxypropoxy)imino]cyclohexane]",LD50 at 168 h,[2],> 1000 mg/kg
same,Relative activity related to the inhibition of the free acid,[1],60.5
same,ED50,[1]; [6],2 mg/kg
same,"Inhibition of the erosion index, relative activity",[3]; erosion index,3.1
same,ED50,[3]; [7],18.8 mg/kg
same,ED50,[3]; [5],7.1 mg/kg
same,"Inhibition of the erosion frequency, relative activity",[3]; erosion frequency,10.1
"CN(C)CCCNCC(O)CO/N=C1\CCCC\C1=C/c1ccccc1 (racemic) [Compound M, (R,S)-2-(E)-(phenylmethylene)-1-(E)-{[3-(3-dimethylamino-1-propylamino)-2-hydroxypropoxy]imino}cyclohexane]",Relative activity related to the inhibition of the free acid,[1],about 6.7
same,ED50,[1]; [6],29.9 mg/kg
same,"Inhibition of the erosion index, relative activity",[3]; erosion index,1.3
same,ED50,[3]; [7],30 to 60 mg/kg
same,ED50,[3]; [5],17.5 mg/kg
same,"Inhibition of the erosion frequency, relative activity",[3]; erosion frequency,3-6
"CNC(=NC#N)NCCSCc1nc[nH]c1C [cimetidine, 2-cyano-1-methyl-3-[2-[[(5-methyl-4-imidazolyl)-methyl]thio]ethyl]guanidine, reference compound]",gastroprotective activity (in words),[1],low gastroprotective action in a rather high dose
"CCCN(CCC)CC(O)CO/N=C1\CCCC\C1=C/c1ccc(Cl)c(Cl)c1 (racemic) [Compound B, (R,S)-2-(E)-(3,4-dichlorophenylmethylene)-1-(E)-[(3-dipropylamino-2-hydroxypropoxy)imino]cyclohexane]",LD50 at 168 h,[2],> 1000 mg/kg
same,Relative activity related to the inhibition of the free acid,[1],12.5
same,ED50,[1]; [6],12.6 mg/kg
same,"Inhibition of the erosion index, relative activity",[3]; erosion index,1.7
same,ED50,[3]; [7],20.1 mg/kg
same,ED50,[3]; [5],12.7 mg/kg
same,"Inhibition of the erosion frequency, relative activity",[3]; erosion frequency,6.4
"CCCCCCNCC(O)CO/N=C1\CCCC\C1=C/c1ccc(Cl)cc1 (racemic) [Compound F, (R,S)-2-(E)-(4-chlorophenylmethylene)-1-(E)-[(3-hexylamino-2-hydroxypropoxy)imino]-cyclohexane]",LD50 at 168 h,[2],> 1000 mg/kg
same,ED50,[3]; [5],7.2 mg/kg
"CCCCNCC(O)CO/N=C1\CCCC\C1=C/c1ccc(Cl)cc1 (racemic) [Compound L, (R,S)-2-(E)-(4-chlorophenylmethylene)-1-(E)-[(3-butylamino-2-hydroxypropoxy)imino]cyclohexane]",LD50 at 168 h,[2],1300 mg/kg
same,Relative activity related to the inhibition of the free acid,[1],18.3
same,ED50,[1]; [6],7.6 mg/kg
same,"Inhibition of the erosion index, relative activity",[3]; erosion index,2.2
same,ED50,[3]; [7],30 to 60 mg/kg
same,ED50,[3]; [5],9.8 mg/kg
same,"Inhibition of the erosion frequency, relative activity",[3]; erosion frequency,3-6
"COc1ccccc1/C=C1\CCCC\C1=N/OCC(O)CN1CCN(c2ccccc2OC)CC1 (racemic) [Compound H, (R,S)-2-(E)-(2-methoxyphenylmethylene)-1-(E)-{3-[4-(2-methoxyphenyl)-1-piperazinyl]-2-hydroxypropoxyimino}cyclohexane]",Relative activity related to the inhibition of the free acid,[1],higher than 20.0
same,ED50,[1]; [6],9.5 mg/kg
same,"Inhibition of the erosion index, relative activity",[3]; erosion index,0.4-0.7
same,ED50,[3]; [7],> 60 mg/kg
same,ED50,[3]; [5],30 to 60 mg/kg
same,"Inhibition of the erosion frequency, relative activity",[3]; erosion frequency,< 3
"CN(CC(O)CO/N=C1\CCCC\C1=C/c1ccc(Cl)cc1)C1CCCCC1 (racemic) [Compound D, (R,S)-2-(E)-(4-chlorophenylmethylene)-1-(E)-[3'-(N-methyl-N-cyclohexylamino)-2'-hydroxypropoxyimino]cyclohexane]",LD50 at 168 h,[2],> 1000 mg/kg
same,Relative activity related to the inhibition of the free acid,[1],32.3
same,ED50,[1]; [6],2.6 mg/kg
same,"Inhibition of the erosion index, relative activity",[3]; erosion index,4.2
same,ED50,[3]; [7],8.3 mg/kg
same,ED50,[3]; [5],5.2 mg/kg
same,"Inhibition of the erosion frequency, relative activity",[3]; erosion frequency,22.8
same,MIC,[4]; strain 867/90,15.6 µg/mL
same,MIC,[4]; strain 1596,15.6 µg/mL
same,MIC,[4]; strain 3842,15.6 µg/mL
same,MIC,[4]; strain 6656,15.6 µg/mL
same,MIC,[4]; strain 6709,15.6 µg/mL
"CN(C)CC(O)CO/N=C1\CCCC\C1=C/c1ccc(Cl)cc1 (racemic) [Compound G, (R,S)-2-(E)-(4-chlorophenylmethylene)-1-(E)-[(3-dimethylamino-2-hydroxypropoxy)imino]cyclohexane]",Relative activity related to the inhibition of the free acid,[1],60-125
same,ED50,[3]; [5],15.8 mg/kg
same,"Inhibition of the erosion frequency, relative activity",[3]; erosion frequency,3-6
same,MIC,[4]; strain 867/90,31.2 µg/mL
same,MIC,[4]; strain 1596,125 µg/mL
same,MIC,[4]; strain 3842,62.5 µg/mL
same,MIC,[4]; strain 6656,31.2 µg/mL
same,MIC,[4]; strain 6709,125 µg/mL
"beta-D-fructofuranosyl alpha-D-glucopyranoside hydrogen sulfate basic aluminium salt [sucralfate, reference compound]","Gastroprotective activity: test with absolute ethanol, ED50 p.o.","[1]; rat, p.o., 60 min pretreatment, absolute ethanol 1 ml/animal, erosion index",69.0 mg/kg
same,gastroprotective activity (in words),[1],nearly identical activity
"C=CCNCC(O)CO/N=C1\CCCC\C1=C/c1ccc(Cl)cc1 (racemic) [Compound I, (R,S)-2-(E)-(4-chlorophenylmethylene)-1-(E)-[(3-propenylamino-2-hydroxypropoxy)imino]cyclohexane]",Relative activity related to the inhibition of the free acid,[1],higher than 10.0
same,ED50,[1]; [6],8.4 mg/kg
same,"Inhibition of the erosion index, relative activity",[3]; erosion index,2.6
same,ED50,[3]; [7],39.2 mg/kg
same,ED50,[3]; [5],8.6 mg/kg
same,"Inhibition of the erosion frequency, relative activity",[3]; erosion frequency,4.8

# Source: patent publication US5597822A, “Pharmaceutical compositions for the prevention and/or treatment a gastrointestinal diseases” (Egis Pharmaceutical, priority 1993, dated 1997)
